In PMC6151456, “Screening a Natural Product-Based Library against Kinetoplastid Parasites” (Molecules : A Journal of Synthetic Chemistry and Natural …, 2017):
Like-named read-outs stand apart in the source and are kept apart here.

How the values were obtained:
[1] = tested on: L. donovani DD8 promastigotes; test: L. donovani DD8 promastigote viability assay (resazurin); assay type: cell-based, Leishmania donovani; conditions: for IC50: 14 point dose response, top 16.7 µM
Method: (§1) For the primary screen, compounds were prepared as a stock concentration of 5 mM in 100% DMSO and tested in duplicate points for two independent experiments (n = 2) at final assay concentrations of 20 µM and 16.7 µM for the L. donovani intracellular amastigote and promastigote viability assays, respectively. Primary screening against T. b. brucei was undertaken at 5 µM and for T. cruzi at 10 µM final concentrations. […] These compounds were then retested in a 14 point format to determine the IC50 value against the parasite, and against HEK-293, THP-1 and 3T3 cells to determine the selectivity to the parasite. […] A top dose of 20 µM was used in the T. b. brucei assay and 18.3 µM for T.cruzi assay, in 14 point dose repsonse curves as described.
This assay was established to assess the activity of the compound library on the extracellular form of the parasites. An initial cell density of 1 × 10^5 parasites/mL was inoculated into a 75 cm^2 flask (in a total of 30 mL of M199 medium + 10% (v/v) HIFBS) and incubated at 27 °C. After 96 h the parasites reached the mid-log phase and were seeded in black, clear bottom 384-well plates (Greiner-bio-one®, Monroe, UT, USA) at a concentration of 5 × 10^5 parasites/mL in a volume of 55 µL using a Bravo automated liquid handling platform (Agilent, Santa Clara, CA, USA). Compound stocks were diluted 1:25 in M199 media without HIFBS using a dilution plate (Greiner-bio-one®, Monroe, UT, USA). The compounds were dispensed in 5 µL using a Bravo and parasites incubated for an additional 68 h at 27 °C. Resazurin (Cayman Chemicals®, Ann Arbor, MI, USA) at 0.142 mM final assay concentration was then dispensed into plates at a volume of 10 µL/well using a Multidrop™ 384 Reagent Dispenser (Thermo Scientific®, Newington, NH, USA) and incubated at 27 °C. The plates were read after 4 h on an EnVision™ Multilabel plate reader (PerkinElmer, Waltham, MA, USA) using fluorometry with an excitation of 530 nm and emission 590 nm. For the L. donovani DD8 promastigote viability assay, 1 µM of amphotericin B was used as positive control and 0.4% DMSO as negative control.

[2] = tested on: L. donovani DD8 intracellular amastigotes; test: L. donovani DD8 intracellular amastigote high content imaging assay; assay type: cell-based, Leishmania donovani; conditions: 14 point dose response, top 20 µM
Method: as §1
A high content, high-throughput imaging assay was used to identify compounds active against L. donovani DD8 intracellular amastigotes as described previosuly.

HEK-293 cells = test: HEK-293 resazurin viability assay (cytotoxicity, selectivity); assay type: cell-based, human
Method: (§2) Primary screening against T. b. brucei was undertaken at 5 µM and for T. cruzi at 10 µM final concentrations.
Cytotoxicity testing was undertaken as previously described.

THP-1 cells = test: THP-1 cytotoxicity (selectivity); assay type: cell-based, human
Method: as §1

[3] = tested on: T. cruzi intracellular amastigotes; test: T. cruzi intracellular amastigote image-based assay; assay type: cell-based, Trypanosoma cruzi; conditions: for IC50: n = 2, top 18.3 µM
Method: as §1
(§3) The efficacy of compounds against T. cruzi was undertaken using a phenotypic, high-throughput image-based assay as previously described.

3T3 host cells = test: 3T3 host cell cytotoxicity (selectivity); assay type: cell-based, mouse; conditions: relative to T. cruzi
Method: as §2, §3

[4] = tested on: T. b. brucei bloodstream form strain 427; test: T. b. brucei resazurin viability assay; assay type: cell-based, Trypanosoma brucei brucei
Method: as §1
The efficacy of compounds against T. b. brucei bloodstream form was evaluated using a resazurin-based assay, previously described in the literature.

P. falciparum (3D7) = conditions: cited from earlier work
P. falciparum (Dd2) = conditions: cited from earlier work
L. donovani amastigotes = tested on: L. donovani amastigotes; parameters: method as in PMID 22720099; conditions: previously reported; read-out: IC50, amastigote assay; cited from earlier work
[5] = Leishmania donovani, n = 2, read-out: IC50 (mean ± SD), L. donovani DD8 promastigotes
[6] = Leishmania donovani, n = 2, read-out: IC50 (mean ± SD), L. donovani DD8 intracellular amastigotes
[7] = relative to L. donovani DD8 intracellular amastigotes
[8] = relative to L. donovani DD8 promastigotes
[9] = Trypanosoma cruzi, intracellular amastigotes, read-out: IC50 (mean ± SD), T. cruzi
[10] = Leishmania donovani, read-out: IC50 (mean ± SD), L. donovani DD8 intracellular amastigotes, n = 2
[11] = Leishmania donovani, at 16.7 µM
[12] = Trypanosoma brucei, n = 2, 14 point dose response, top 20 µM, read-out: IC50 (mean ± SD), T. b. brucei
[13] = n = 2, 14 point dose response, top 20 µM, read-out: IC50 (mean ± SD), T. b. brucei
[14] = Trypanosoma brucei, reference compounds, read-out: IC50, T. b. brucei

Row | Compound | Selectivity index (SI) compared to HEK-293 cells (HEK-293 cells; [7]) | Selectivity index (SI) compared to THP-1 cells (THP-1 cells; [7]) | IC50 [3, 9] | Selectivity index (SI) compared to HEK-293 cells (HEK-293 cells; relative to T. cruzi) | Selectivity index (SI) compared to HEK-293 cells (HEK-293 cells; relative to T. b. brucei) | Selectivity index (SI) compared to 3T3 cells (3T3 host cells) | IC50 [4, 12] | also measured
1 | C[C@@H]1[C@H](O)[C@@H](C)/C=C/C=C/C=C/C=C/C=C/C=C/C=C/[C@H](O[C@@H]2O[C@H](C)[C@@H](O)[C@H](N)[C@@H]2O)C[C@@H]2O[C@](O)(C[C@@H](O)C[C@@H](O)[C@H](O)CC[C@@H](O)C[C@@H](O)CC(=O)O[C@H]1C)C[C@H](O)[C@H]2C(=O)O [Amphotericin B, reference compound] | > 41.65 | > 9.61 | – | – | – | – | – | IC50 [1, 5]: 120 ± 10 nM; IC50 [2, 6]: 200 ± 20 nM; Selectivity index (SI) compared to HEK-293 cells (HEK-293 cells; [8]): > 68.27; Selectivity index (SI) compared to THP-1 cells (THP-1 cells; [8]): > 16.39
2 | O=C(Cn1ccnc1[N+](=O)[O-])NCc1ccccc1 [Benznidazole, reference compound] | – | – | 3360 ± 1520 nM | > 44.84 | – | – | – | –
3 | COc1c(OC)c2c(c(CCN(C)C)c1SC)Sc1c(CCN(C)C)c(SC)c(OC)c(OC)c1S2 [Compound 1, Lissoclinotoxin E] | > 2.26 | 1.13 | – | > 2.52 | > 17.68 | > 4.67 | – | IC50 [2, 10]: < 5000 nM; IC50 ([2]; read-out: IC50 (mean ± SD), L. donovani DD8 intracellular amastigotes, n = 2, listed as Lissoclinotoxin E (1)): 4410 ± 240 nM; IC50 ([3]; Trypanosoma cruzi, read-out: IC50 (mean ± SD), T. cruzi, intracellular amastigotes): < 5000 nM; IC50 ([3]; read-out: IC50 (mean ± SD), T. cruzi, intracellular amastigotes, listed as Lissoclinotoxin E (1)): 3920 ± 380 nM; Selectivity index (SI) compared to HEK-293 cells (HEK-293 cells; [8]): > 11.72; Selectivity index (SI) compared to THP-1 cells (THP-1 cells; [8]): 6.88
4 | CC(C)=CCC[C@]1(C)C=Cc2c(O)c3c(c(CC=C(C)C)c2O1)O[C@]12C(=C[C@@H]4C[C@H]1C(C)(C)O[C@@]2(C/C=C(/C)C(=O)O)C4=O)C3=O [Compound 4, Gambogic acid] | – | – | 1870 ± 70 nM | 1.50 | 7.11 | 1.00 | 270 ± 40 nM | inhibition at 16.7 µM [1, 11]: 100%
5 | COc1c(C)c2c(c(O)c1C/C=C(\C)CCC(=O)O)C(=O)OC2 [Compound 5, Mycophenolic acid, reference compound] | – | – | 1590 ± 30 nM | 0.37 | 1.01 | 0.13 | 510 ± 100 nM | –
6 | O=C1N[C@@H]2C(=C[C@H](O)[C@@H](O)[C@H]2O)c2cc3c(c(O)c21)OCO3 [Compound 6, Narciclasine] | – | – | – | 0.21 | 1.09 | 3.28 | – | inhibition of L. donovani DD8 promastigotes ([1]; at 16.7 µM): 100% inhibition at 16.7 µM; IC50 [4, 13]: 30 ± 10 nM; IC50 ([3]; intracellular amastigotes, read-out: IC50 (mean ± SD), T. cruzi): 200 ± 10 nM
7 | Cc1ccc(S(=O)(=O)n2ccc3c2C(=O)C2=C(NCCS2(=O)=O)C3=O)cc1 [Compound 7, 6-tosyl-2,3-dihydro-[1, 4]thiazino[3,2-f]indole-5,9(1H,6H)-dione 4,4-dioxide] | – | – | 3550 ± 380 nM | 1.46 | 4.19 | 1.33 | 680 ± 10 nM | IC50 (P. falciparum (3D7); read-out: IC50, 3D7 strain of P. falciparum): 546 ± 119 nM; IC50 (P. falciparum (Dd2); read-out: IC50, Dd2 strain of P. falciparum): 509 ± 30.9 nM
8 | O=C1C2=C(C(=O)c3ccccc31)S(=O)(=O)CCN2 [Compound 9, 3,4-dihydro-2H-naphtho[2,3-b][1,4]thiazine-5,10-dione 1,1-dioxide] | – | – | 3820 ± 610 nM | 1.11 | – | 1.24 | – | inhibition at 16.7 µM [1, 11]: 100%; IC50 ([3]; intracellular amastigotes, listed as 3,4-Dihydro-2H-naphtho[2,3-b]-[1,4] thiazine-5,10-dione 1,1-dioxide (9), read-out: IC50 (mean ± SD), T. cruzi): 3810 ± 600 nM
9 | COc1c(SC)c(CCN(C)C)c2sc3c(CCN(C)C)c(SC)c(OC)c(OC)c3ssc2c1OC [Compound 11, Lissoclinotoxin F] | > 2.40 | > 1.20 | – | – | – | – | – | IC50 ([1]; Leishmania donovani, read-out: IC50 (mean ± SD), L. donovani DD8 promastigotes, n = 2): 5510 ± 300 nM; IC50 [2, 10]: 8310 ± 670 nM; Selectivity index (SI) compared to HEK-293 cells (HEK-293 cells; [8]): > 3.62; Selectivity index (SI) compared to THP-1 cells (THP-1 cells; [8]): > 1.81
10 | CCOC(=O)c1c(C)n(-c2ccc(OC)cc2)c2ccc(O)c(CN(CC)CC)c12 [Compound 12, ethyl 4-((diethylamino)methyl)-5-hydroxy-1-(4-methoxyphenyl)-2-methyl-1H-indole-3-carboxylate] | > 2.97 | > 1.50 | – | – | – | – | – | inhibition at 16.7 µM [1, 11]: 100%; IC50 [2, 6]: 11100 ± 310 nM; activity against T. b. brucei [4]: no significant activity; activity against T. cruzi [3]: no significant activity
11 | N=C(N)c1ccc(/N=N/Nc2ccc(C(=N)N)cc2)cc1 [Diminazene] | – | – | – | – | > 962.75 | – | 40 ± 10 nM | IC50 [4, 14]: 40.5 ± 12.8 nM
12 | CCCCCCCCCCCCCCCCOP(=O)([O-])OCC[N+](C)(C)C [Miltefosine, reference compound] | > 13.12 | > 7.27 | – | – | – | – | – | IC50 [1, 5]: 3480 ± 260 nM; IC50 [2, 6]: 2540 ± 570 nM; Selectivity index (SI) compared to HEK-293 cells (HEK-293 cells; [8]): > 9.57; Selectivity index (SI) compared to THP-1 cells (THP-1 cells; [8]): > 5.74; IC50 (L. donovani amastigotes): 3100 ± 2300 nM
13 | CC1CS(=O)(=O)CCN1/N=C/c1ccc([N+](=O)[O-])o1 (stereo not shown) [Nifurtimox, reference compound] | – | – | 620 ± 100 nM | > 243.03 | – | – | – | –
14 | N=C(N)c1ccc(OCCCCCOc2ccc(C(=N)N)cc2)cc1 [Pentamidine] | – | – | – | – | > 334.52 | – | 2 ± 1 nM | IC50 [4, 14]: 2.86 ± 1.46 nM
15 | COc1ccc(C[C@H](N)C(=O)N[C@H]2[C@@H](O)[C@H](n3cnc4c(N(C)C)ncnc43)O[C@@H]2CO)cc1 [Puromycin, reference compound] | – | – | 1650 ± 350 nM | 0.150 | 12.96 | – | 30 nM | IC50 [4, 14]: 39 ± 6.09 nM
16 | Psammaplysin F [Compound 14] | – | – | – | > 3.51 | – | > 1.90 | – | IC50 ([3]; intracellular amastigotes, listed as Psammaplysin F (14), read-out: IC50 (mean ± SD), T. cruzi): 5630 ± 760 nM; IC50 (P. falciparum (3D7); read-out: IC50, P. falciparum 3D7): 870 nM; IC50 (P. falciparum (Dd2); read-out: IC50, P. falciparum Dd2): 1400 nM
17 | Spermatinamine [Compound 2] | 0.64 | 0.80 | – | – | 5.89 | – | – | IC50 ([1]; n = 2, read-out: IC50 (mean ± SD), L. donovani DD8 promastigotes): 11900 ± 560 nM; IC50 ([2]; n = 2, read-out: IC50 (mean ± SD), L. donovani DD8 intracellular amastigotes): 6150 ± 50 nM; IC50 [4, 13]: 1000 ± 260 nM; Selectivity index (SI) compared to HEK-293 cells (HEK-293 cells; [8]): 0.33; Selectivity index (SI) compared to THP-1 cells (THP-1 cells; [8]): 0.41; IC50 (P. falciparum (3D7); read-out: antimalarial IC50, P. falciparum (3D7)): 230 nM
